According to patent US9493451B2 (Bionomics Limited, priority 2011, dated 2016):

Target: T1, Kv1.3 (Homo sapiens, UniProt P22001)
T1 construct: expressed in transfected cells; host or cells: CHO (Kv1.3/CHO)
Test: Electrophysiology: planar patch-clamp of Kv1.3 currents, IC50 from steady state current amplitude
Assay type: cell-based
Conditions: Kv1.3 electrophysiology, results according to Method D1, read-out: IC50 (Kv1.3 ephys steady state)
Procedure, shortened: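 Planar patch-clamp, whole-cell, Kv1.3/CHO cells; 500 ms pulses to +40 mV from −80 mV every 30 s; bath pH 7.4, pipette pH 7.2; 0.5% DMSO final. 5-6 cumulative concentrations on 2-3 cells to steady-state block; IC50 from Hill fit of normalised steady-state current at pulse end.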

T1 sequence (P22001 whole entry): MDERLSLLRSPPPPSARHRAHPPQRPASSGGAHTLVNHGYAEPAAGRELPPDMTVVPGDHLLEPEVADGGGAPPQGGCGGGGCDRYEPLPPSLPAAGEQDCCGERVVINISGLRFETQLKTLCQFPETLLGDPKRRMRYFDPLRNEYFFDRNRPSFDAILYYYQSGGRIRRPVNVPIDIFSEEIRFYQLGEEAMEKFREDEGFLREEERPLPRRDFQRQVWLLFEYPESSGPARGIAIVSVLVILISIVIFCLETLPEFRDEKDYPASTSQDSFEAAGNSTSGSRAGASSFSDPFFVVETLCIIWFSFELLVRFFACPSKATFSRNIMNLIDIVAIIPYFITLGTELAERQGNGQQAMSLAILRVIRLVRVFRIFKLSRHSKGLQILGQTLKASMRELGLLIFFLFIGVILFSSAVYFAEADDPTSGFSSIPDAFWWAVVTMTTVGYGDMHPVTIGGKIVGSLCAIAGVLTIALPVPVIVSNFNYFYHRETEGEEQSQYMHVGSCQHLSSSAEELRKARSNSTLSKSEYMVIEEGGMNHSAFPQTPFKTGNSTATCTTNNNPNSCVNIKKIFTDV

Row | SMILES | IC50
1 | O=C(C1CC1c1ccc(F)cc1)N(Cc1cccnn1)C(c1ccc(S(=O)(=O)C2CC2)cc1)C1CC1 (centres unmarked) [Example 248] | 200 to 1000 nM
2 | O=C(C1CC1c1ccc(F)cc1)N(Cc1ccc(F)cn1)C(c1ccc(S(=O)(=O)C2CC2)cc1)C1CC1 (centres unmarked) [Example 250] | 200 to 1000 nM
3 | N#Cc1cccc(C(C2CC2)N(Cc2ncccc2F)C(=O)C2CC2c2ccc(F)cc2)c1 (centres unmarked) [Example 251] | 200 to 1000 nM
4 | CC(CC(=O)N(Cc1cccnn1)C(c1ccc(OC(F)F)cc1)C1CC1)c1ccccc1C(F)(F)F (centres unmarked) [Example 261] | 200 to 1000 nM
5 | CC(CC(=O)N(Cc1ccc(F)cn1)C(c1ccc(F)cc1F)C1CCN(C)CC1)c1ccc(F)cc1 (centres unmarked) [Example 271] | 200 to 1000 nM
6 | CC(c1ccc(Cl)cc1)N(C(=O)CS(=O)(=O)c1ccc(F)cc1)C1CC2CCC(C1)N2C (centres unmarked) [Example 280] | 200 to 1000 nM
7 | CC(C)C(c1ccc(F)cc1)N(CCC1CCNCC1)C(=O)CS(=O)(=O)c1ccc(F)cc1 (centres unmarked) [Example 284] | 200 to 1000 nM
8 | CN1CCC(C(c2ccc(F)cc2F)N(Cc2ccc(F)cn2)C(=O)CS(=O)(=O)c2ccc(F)cc2)CC1 (centres unmarked) [Example 287] | 200 to 1000 nM
9 | CC(c1ccc(S(C)(=O)=O)cc1)N(Cc1ccc(C(F)(F)F)nc1)C(=O)C(C)(C)S(=O)(=O)c1ccccc1 (centres unmarked) [Example 288] | 1000 to 2000 nM
10 | O=C(CS(=O)(=O)c1cccc(C(F)(F)F)c1)N(Cc1cccc[n+]1[O-])C(c1ccc(Cl)cc1)C1CC1 (centres unmarked) [Example 292] | 200 to 1000 nM
11 | O=C(CS(=O)(=O)c1ccc(F)cc1)N(C1CCNCC1)C(c1ccc(OC(F)F)cc1)C1CC1 (centres unmarked) [Example 298] | 200 to 1000 nM
12 | O=C(CS(=O)(=O)c1ccccc1F)N(Cc1ccc(C(F)(F)F)nc1)C(c1ccc(OC(F)F)cc1)C1CC1 (centres unmarked) [Example 299] | 50 to 200 nM
13 | O=C(CS(=O)(=O)c1ccccc1F)N(Cc1ccc(C(F)(F)F)nc1)C(c1ccc(OC(F)F)cc1)C1CC1 (centres unmarked) [Example 300] | 50 to 200 nM
14 | O=C(CS(=O)(=O)c1ccccc1)N(Cc1ccc(C(F)(F)F)nc1)C(c1ccc(OC(F)F)cc1)C1CC1 (centres unmarked) [Example 301] | 50 to 200 nM
15 | O=C(CS(=O)(=O)c1ccccc1)N(Cc1ccc(C(F)(F)F)nc1)C(c1ccc(OC(F)F)cc1)C1CC1 (centres unmarked) [Example 302] | 50 to 200 nM
16 | O=C(CS(=O)(=O)c1ccccc1)N(Cc1ncccc1F)C(c1ccc(OC(F)F)cc1)C1CC1 (centres unmarked) [Example 303] | 50 to 200 nM
17 | O=C(CS(=O)(=O)c1ccccc1)N(Cc1ncccc1F)C(c1ccc(OC(F)F)cc1)C1CC1 (centres unmarked) [Example 304] | 50 to 200 nM
18 | O=C(CS(=O)(=O)c1ccccc1)N(Cc1cccnn1)C(c1ccc(OC(F)F)cc1)C1CC1 (centres unmarked) [Example 305] | 50 to 200 nM
19 | O=C(CS(=O)(=O)c1ccccc1)N(Cc1cccnn1)C(c1ccc(OC(F)F)cc1)C1CC1 (centres unmarked) [Example 306] | 200 to 1000 nM
20 | O=C(CS(=O)(=O)c1cccc(C(F)(F)F)c1)N(Cc1cccnn1)C(c1ccc(OC(F)F)cc1)C1CC1 (centres unmarked) [Example 307] | 50 to 200 nM
21 | CC(C)(C(=O)N(Cc1cccnn1)C(c1ccc(OC(F)F)cc1)C1CC1)S(=O)(=O)c1ccc(F)cc1 (centres unmarked) [Example 308] | 50 to 200 nM

Row | SMILES | IC50
22 | O=C(CS(=O)(=O)c1ccc(F)cc1)N(Cc1ncccc1F)C(c1ccc(OC(F)F)cc1)C1CC1 (centres unmarked) [Example 309] | 50 to 200 nM
23 | O=C(CS(=O)(=O)c1cccc(C(F)(F)F)c1)N(Cc1cccnn1)C(c1ccc(OC(F)F)cc1)C1CC1 (centres unmarked) [Example 310] | 200 to 1000 nM
24 | CC(C)(C(=O)N(Cc1cccnn1)C(c1ccc(OC(F)F)cc1)C1CC1)S(=O)(=O)c1ccc(F)cc1 (centres unmarked) [Example 311] | 200 to 1000 nM
25 | O=C(CS(=O)(=O)c1ccc(F)cc1)N(Cc1ccc(C(F)(F)F)nc1)C(c1ccc(OC(F)F)cc1)C1CC1 (centres unmarked) [Example 312] | 50 to 200 nM
26 | O=C(CS(=O)(=O)c1ccc(F)cc1)N(Cc1ccc(C(F)(F)F)nc1)C(c1ccc(OC(F)F)cc1)C1CC1 (centres unmarked) [Example 313] | 50 to 200 nM
27 | O=C(CS(=O)(=O)c1ccc(F)cc1)N(Cc1ccccn1)C(c1ccc(OC(F)F)cc1)C1CC1 (centres unmarked) [Example 314] | 200 to 1000 nM
28 | O=C(CS(=O)(=O)c1ccc(F)cc1)N(C1CCC(F)(F)CC1)C(c1ccc(OC(F)F)cc1)C1CC1 (centres unmarked) [Example 315] | 200 to 1000 nM
29 | O=C(CS(=O)(=O)c1ccc(F)cc1)N(C1CCC(F)(F)CC1)C(c1ccc(OC(F)F)cc1)C1CC1 (centres unmarked) [Example 316] | 200 to 1000 nM
30 | O=C(CS(=O)(=O)c1ccc(F)cc1)N(C1CCOCC1)C(c1ccc(OC(F)F)cc1)C1CC1 (centres unmarked) [Example 317] | 200 to 1000 nM
31 | CC(C)(C(=O)N(Cc1ccccn1)C(c1ccc(OC(F)F)cc1)C1CC1)S(=O)(=O)c1ccc(F)cc1 (centres unmarked) [Example 318] | 50 to 200 nM
32 | CC(C)(C(=O)N(Cc1ccccn1)C(c1ccc(OC(F)F)cc1)C1CC1)S(=O)(=O)c1ccc(F)cc1 (centres unmarked) [Example 319] | 50 to 200 nM
33 | Cc1ccc(CN(C(=O)CS(=O)(=O)c2ccccc2)C(c2ccc(OC(F)F)cc2)C2CC2)cn1 (centres unmarked) [Example 322] | 50 to 200 nM
34 | Cc1ccc(CN(C(=O)CS(=O)(=O)c2ccccc2)C(c2ccc(OC(F)F)cc2)C2CC2)cn1 (centres unmarked) [Example 323] | 200 to 1000 nM
35 | CC(C)(C(=O)N(Cc1ccc(C(F)(F)F)nc1)C(c1ccc(OC(F)F)cc1)C1CC1)S(=O)(=O)c1ccccc1 (centres unmarked) [Example 324] | 50 to 200 nM
36 | CCS(=O)(=O)c1cccc(C(C2CC2)N(Cc2ncccc2F)C(=O)CS(=O)(=O)c2ccccc2)c1 (centres unmarked) [Example 327] | 1000 to 2000 nM
37 | CCS(=O)(=O)c1cccc(C(C2CC2)N(Cc2ccccn2)C(=O)C(C)(C)S(=O)(=O)c2ccccc2)c1 (centres unmarked) [Example 328] | 200 to 1000 nM
38 | O=C(CS(=O)(=O)c1ccc(F)cc1)N(Cc1ccccn1)C(c1ccccc1OCC(F)F)C1CC1 (centres unmarked) [Example 329] | 50 to 200 nM
39 | O=C(CS(=O)(=O)c1ccc(F)cc1)N(Cc1ccc(C(F)(F)F)nc1)C(c1ccccc1OCC(F)F)C1CC1 (centres unmarked) [Example 330] | 50 to 200 nM
40 | Cc1cccc(CN(C(=O)CS(=O)(=O)c2ccc(F)cc2)C(c2ccccc2OC(F)(F)F)C2CC2)n1 (centres unmarked) [Example 331] | 50 to 200 nM
41 | N#Cc1cccc(C(C2CC2)N(Cc2ccc(C(F)(F)F)nc2)C(=O)CS(=O)(=O)c2ccc(F)cc2)c1 (centres unmarked) [Example 332] | 50 to 200 nM
42 | N#Cc1cccc(C(C2CC2)N(Cc2ccc(C(F)(F)F)nc2)C(=O)CS(=O)(=O)c2ccc(F)cc2)c1 (centres unmarked) [Example 333] | 200 to 1000 nM

Next, values leading:

Row | IC50 | SMILES
43 | 50 to 200 nM | CC(C)S(=O)(=O)c1cccc(C(C2CC2)N(Cc2ccncn2)C(=O)C2CC2c2ccc(F)cc2)c1 (centres unmarked) [Example 247]
44 | 50 to 200 nM | O=C(C1CC1c1ccc(F)cc1)N(Cc1cccnn1)C(c1ccc(S(=O)(=O)C2CC2)cc1)C1CC1 (centres unmarked) [Example 249]
45 | 50 to 200 nM | N#Cc1cccc(C(C2CC2)N(Cc2ncccc2F)C(=O)C2CC2c2ccc(F)cc2)c1 (centres unmarked) [Example 252]
46 | < 50 nM | CCS(=O)(=O)c1cccc(CN(C(=O)C2CC2c2ccc(F)cc2)C(c2ccc(Cl)cc2)C2CC2)n1 (centres unmarked) [Example 253]
47 | 50 to 200 nM | CSc1cccc(CN(C(=O)C2CC2c2ccc(F)cc2)C(c2ccc(Cl)cc2)C2CC2)n1 (centres unmarked) [Example 254]
48 | 50 to 200 nM | CC(CC(=O)N(Cc1cccnn1)C(c1ccc(OC(F)F)cc1)C1CC1)c1ccccc1C(F)(F)F (centres unmarked) [Example 260]
49 | < 50 nM | CC(CC(=O)N(Cc1cccnn1)C(c1ccc(OC(F)F)cc1)C1CC1)c1ccc(F)cc1 (centres unmarked) [Example 262]
50 | 50 to 200 nM | CC(CC(=O)N(Cc1ccc(C(F)(F)F)nc1)C(c1ccc(OC(F)F)cc1)C1CC1)c1ccccc1S(C)(=O)=O (centres unmarked) [Example 263]
51 | < 50 nM | CC(CC(=O)N(Cc1ccc(F)cn1)C(c1ccc(S(=O)(=O)C(C)C)cc1)C1CC1)c1ccc(F)cc1 (centres unmarked) [Example 264]
52 | 50 to 200 nM | CCS(=O)(=O)c1cccc(C(C2CC2)N(Cc2ccc(F)cn2)C(=O)CC(C)c2ccccc2C(F)(F)F)c1 (centres unmarked) [Example 265]
53 | 50 to 200 nM | CCS(=O)(=O)c1ccc(C(C2CC2)N(Cc2ccc(F)cn2)C(=O)CC(C)c2ccccc2C(F)(F)F)cc1 (centres unmarked) [Example 269]
54 | 50 to 200 nM | CC(CC(=O)N(Cc1ccc(F)cn1)C(c1ccc(F)cc1)C1CCCO1)c1ccc(F)cc1 (centres unmarked) [Example 270]
55 | 50 to 200 nM | CC(CC(=O)N(Cc1cccc[n+]1[O-])C(c1ccc(Cl)cc1)C1CC1)c1ccc(F)cc1 (centres unmarked) [Example 272]
56 | 50 to 200 nM | O=C(CS(=O)(=O)c1ccccc1)N(Cc1ccc(C(F)(F)F)nc1)C(c1ccc(F)cc1)C1CCCO1 (centres unmarked) [Example 282]
57 | 50 to 200 nM | O=C(CS(=O)(=O)c1ccc(F)cc1)N(Cc1ccc(F)cn1)C(c1ccc(Cl)cc1)C1CC1 (centres unmarked) [Example 290]
58 | 50 to 200 nM | O=C(CS(=O)(=O)c1ccc(F)cc1)N(Cc1ccc(F)nc1)C(c1ccc(Cl)cc1)C1CC1 (centres unmarked) [Example 291]
59 | 50 to 200 nM | O=C(CS(=O)(=O)c1cccc(C(F)(F)F)c1)N(Cc1ccccn1)C(c1ccc(Cl)cc1)C1CC1 (centres unmarked) [Example 293]
60 | 50 to 200 nM | O=C(CS(=O)(=O)c1cccc(C(F)(F)F)c1)N(Cc1ccccn1)C(c1ccc(Cl)cc1)C1CC1 (centres unmarked) [Example 294]
61 | 50 to 200 nM | COc1ccc(CN(C(=O)CS(=O)(=O)c2ccc(F)cc2)C(c2ccc(Cl)cc2)C2CC2)cn1 (centres unmarked) [Example 295]
62 | < 50 nM | Cc1cccc(CN(C(=O)CS(=O)(=O)c2ccc(F)cc2)C(c2ccc(OC(F)F)cc2)C2CC2)n1 (centres unmarked) [Example 320]
